Source: patent US20230017045A1, “PYRIDINE AND PYRIMIDINE CARBOXYLATE HERBICIDES AND METHODS OF USE THEREOF” (Dow AgroSciences LLC, priority 2017, published 2023)

What follows are molecules tested on test plant species (assay: Post-emergent herbicidal activity test (greenhouse, foliar spray, visual growth reduction)). Conditions: post-emergence, 336 h, ALOMY: blackgrass (Alopecurus myosuroides), 140 g ai/ha, 14 days after application, read-out: Visual Growth Reduction (%) 14 Days After Application, ALOMY.
Format: in vivo
Method in brief: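 Scoring used a 0 to 100 percent visual scale of growth reduction against solvent-treated controls, read 14 d after spraying. Applications went onto plants at first or second true leaf stage, 187 L/ha, with crop oil concentrate and X-77 surfactant in the carrier. Post-treatment watering was by subirrigation to avoid wash-off.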
For `COC(=O)c1nc(-c2ccc(C(F)F)cc2Cl)ccc1Cl` [F19, methyl 3-chloro-6-(2-chloro-4-(difluoromethyl)phenyl)picolinate], the pest or weed control at 140 g/ha was 0 to 29%. `COC(=O)c1nc(-c2ccc(C(F)(F)F)nc2Cl)ccc1Cl` [F8, Methyl 2′,5-dichloro-6′-(trifluoromethyl)-[2,3′-bipyridine]-6-carboxylate] showed a pest or weed control at 140 g/ha of 0 to 29%.

Same assay, conditions: post-emergence, 336 h, AMARE: redroot pigweed (Amaranthus retroflexus), 140 g ai/ha, 14 days after application, read-out: Visual Growth Reduction (%) 14 Days After Application, AMARE
Molecule `COC(=O)c1nc(-c2ccc(C(F)F)cc2Cl)ccc1Cl` [F19, methyl 3-chloro-6-(2-chloro-4-(difluoromethyl)phenyl)picolinate] has a pest or weed control at 140 g/ha of 95 to 100%. With `COC(=O)c1nc(-c2ccc(C(F)(F)F)nc2Cl)ccc1Cl` [F8, Methyl 2′,5-dichloro-6′-(trifluoromethyl)-[2,3′-bipyridine]-6-carboxylate] the pest or weed control at 140 g/ha was 95 to 100%.

Same assay, conditions: post-emergence, 336 h, AVEFA: wild oat (Avena fatua), 140 g ai/ha, 14 days after application, read-out: Visual Growth Reduction (%) 14 Days After Application, AVEFA
`COC(=O)c1nc(-c2ccc(C(F)F)cc2Cl)ccc1Cl` [F19, methyl 3-chloro-6-(2-chloro-4-(difluoromethyl)phenyl)picolinate] was tested, and the pest or weed control at 140 g/ha was 0 to 29%. In the case of `COC(=O)c1nc(-c2ccc(C(F)(F)F)nc2Cl)ccc1Cl` [F8, Methyl 2′,5-dichloro-6′-(trifluoromethyl)-[2,3′-bipyridine]-6-carboxylate], the pest or weed control at 140 g/ha is reported as 0 to 29%.

Same assay, conditions: post-emergence, 336 h, CHEAL: lambsquarters (Chenopodium album), 140 g ai/ha, 14 days after application, read-out: Visual Growth Reduction (%) 14 Days After Application, CHEAL
In the case of `COC(=O)c1nc(-c2ccc(C(F)F)cc2Cl)ccc1Cl` [F19, methyl 3-chloro-6-(2-chloro-4-(difluoromethyl)phenyl)picolinate], the pest or weed control at 140 g/ha is reported as 95 to 100%. `COC(=O)c1nc(-c2ccc(C(F)(F)F)nc2Cl)ccc1Cl` [F8, Methyl 2′,5-dichloro-6′-(trifluoromethyl)-[2,3′-bipyridine]-6-carboxylate] showed a pest or weed control at 140 g/ha of 95 to 100%.

Same assay, conditions: post-emergence, 336 h, CIRAR: canada thistle (Cirsium arvense), 140 g ai/ha, 14 days after application, read-out: Visual Growth Reduction (%) 14 Days After Application, CIRAR
`COC(=O)c1nc(-c2ccc(C(F)F)cc2Cl)ccc1Cl` [F19, methyl 3-chloro-6-(2-chloro-4-(difluoromethyl)phenyl)picolinate] gave a pest or weed control at 140 g/ha of 95 to 100%. In the case of `COC(=O)c1nc(-c2ccc(C(F)(F)F)nc2Cl)ccc1Cl` [F8, Methyl 2′,5-dichloro-6′-(trifluoromethyl)-[2,3′-bipyridine]-6-carboxylate], the pest or weed control at 140 g/ha is reported as 85 to 94%.

Same assay, conditions: post-emergence, 336 h, CYPES: yellow nutsedge (Cyperus esculentus), 140 g ai/ha, 14 days after application, read-out: Visual Growth Reduction (%) 14 Days After Application, CYPES
For `COC(=O)c1nc(-c2ccc(C(F)F)cc2Cl)ccc1Cl` [F19, methyl 3-chloro-6-(2-chloro-4-(difluoromethyl)phenyl)picolinate], the pest or weed control at 140 g/ha was 30 to 44%. Molecule `COC(=O)c1nc(-c2ccc(C(F)(F)F)nc2Cl)ccc1Cl` [F8, Methyl 2′,5-dichloro-6′-(trifluoromethyl)-[2,3′-bipyridine]-6-carboxylate] has a pest or weed control at 140 g/ha of 45 to 59%.

Same assay, conditions: post-emergence, 336 h, DIGSA: crabgrass (Digitaria sanguinalis), 140 g ai/ha, 14 days after application, read-out: Visual Growth Reduction (%) 14 Days After Application, DIGSA
`COC(=O)c1nc(-c2ccc(C(F)F)cc2Cl)ccc1Cl` [F19, methyl 3-chloro-6-(2-chloro-4-(difluoromethyl)phenyl)picolinate] showed a pest or weed control at 140 g/ha of 0 to 29%. Molecule `COC(=O)c1nc(-c2ccc(C(F)(F)F)nc2Cl)ccc1Cl` [F8, Methyl 2′,5-dichloro-6′-(trifluoromethyl)-[2,3′-bipyridine]-6-carboxylate] has a pest or weed control at 140 g/ha of 60 to 74%.

Same assay, conditions: post-emergence, 336 h, barnyardgrass (Echinochloa crus-galli), 14 Days After Application, 140 g ai/ha, read-out: Visual Growth Reduction (%) ECHCG
With `COC(=O)c1nc(-c2ccc(C(F)F)cc2Cl)ccc1Cl` [F19, methyl 3-chloro-6-(2-chloro-4-(difluoromethyl)phenyl)picolinate] the pest or weed control at 140 g/ha was 0 to 29%. `COC(=O)c1nc(-c2ccc(C(F)(F)F)nc2Cl)ccc1Cl` [F8, Methyl 2′,5-dichloro-6′-(trifluoromethyl)-[2,3′-bipyridine]-6-carboxylate] gave a pest or weed control at 140 g/ha of 30 to 44%.

Same assay, conditions: post-emergence, 336 h, common chickweed (Stellaria media), 14 Days After Application, 140 g ai/ha, read-out: Visual Growth Reduction (%) STEME
Molecule `COC(=O)c1nc(-c2ccc(C(F)F)cc2Cl)ccc1Cl` [F19, methyl 3-chloro-6-(2-chloro-4-(difluoromethyl)phenyl)picolinate] has a pest or weed control at 140 g/ha of 0 to 29%. `COC(=O)c1nc(-c2ccc(C(F)(F)F)nc2Cl)ccc1Cl` [F8, Methyl 2′,5-dichloro-6′-(trifluoromethyl)-[2,3′-bipyridine]-6-carboxylate] showed a pest or weed control at 140 g/ha of 0 to 29%.

Same assay, conditions: post-emergence, 336 h, giant foxtail (Setaria faberi), 14 Days After Application, 140 g ai/ha, read-out: Visual Growth Reduction (%) SETFA
Work on `COC(=O)c1nc(-c2ccc(C(F)F)cc2Cl)ccc1Cl` [F19, methyl 3-chloro-6-(2-chloro-4-(difluoromethyl)phenyl)picolinate] yielded a pest or weed control at 140 g/ha of 0 to 29%. Molecule `COC(=O)c1nc(-c2ccc(C(F)(F)F)nc2Cl)ccc1Cl` [F8, Methyl 2′,5-dichloro-6′-(trifluoromethyl)-[2,3′-bipyridine]-6-carboxylate] has a pest or weed control at 140 g/ha of 0 to 29%.

Same assay, conditions: post-emergence, 336 h, ivy-leaf morning glory (Ipomoea hederacea), 14 Days After Application, 140 g ai/ha, read-out: Visual Growth Reduction (%) IPOHE
`COC(=O)c1nc(-c2ccc(C(F)F)cc2Cl)ccc1Cl` [F19, methyl 3-chloro-6-(2-chloro-4-(difluoromethyl)phenyl)picolinate] was tested, and the pest or weed control at 140 g/ha was 95 to 100%. Work on `COC(=O)c1nc(-c2ccc(C(F)(F)F)nc2Cl)ccc1Cl` [F8, Methyl 2′,5-dichloro-6′-(trifluoromethyl)-[2,3′-bipyridine]-6-carboxylate] yielded a pest or weed control at 140 g/ha of 95 to 100%.

Same assay, conditions: post-emergence, 336 h, johnsongrass (Sorghum vulgare), 14 Days After Application, 140 g ai/ha, read-out: Visual Growth Reduction (%) SORVU
`COC(=O)c1nc(-c2ccc(C(F)F)cc2Cl)ccc1Cl` [F19, methyl 3-chloro-6-(2-chloro-4-(difluoromethyl)phenyl)picolinate] was tested, and the pest or weed control at 140 g/ha was 30 to 44%. In the case of `COC(=O)c1nc(-c2ccc(C(F)(F)F)nc2Cl)ccc1Cl` [F8, Methyl 2′,5-dichloro-6′-(trifluoromethyl)-[2,3′-bipyridine]-6-carboxylate], the pest or weed control at 140 g/ha is reported as 85 to 94%.

Same assay, conditions: post-emergence, 336 h, kochia (Bassia scoparia), 14 Days After Application, 140 g ai/ha, read-out: Visual Growth Reduction (%) KCHSC
With `COC(=O)c1nc(-c2ccc(C(F)F)cc2Cl)ccc1Cl` [F19, methyl 3-chloro-6-(2-chloro-4-(difluoromethyl)phenyl)picolinate] the pest or weed control at 140 g/ha was 85 to 94%. `COC(=O)c1nc(-c2ccc(C(F)(F)F)nc2Cl)ccc1Cl` [F8, Methyl 2′,5-dichloro-6′-(trifluoromethyl)-[2,3′-bipyridine]-6-carboxylate] showed a pest or weed control at 140 g/ha of 85 to 94%.

Same assay, conditions: post-emergence, 336 h, rice (Oryza sativa), 14 Days After Application, 140 g ai/ha, read-out: Visual Growth Reduction (%) ORYSA
Molecule `COC(=O)c1nc(-c2ccc(C(F)F)cc2Cl)ccc1Cl` [F19, methyl 3-chloro-6-(2-chloro-4-(difluoromethyl)phenyl)picolinate] has a pest or weed control at 140 g/ha of 0 to 29%. In the case of `COC(=O)c1nc(-c2ccc(C(F)(F)F)nc2Cl)ccc1Cl` [F8, Methyl 2′,5-dichloro-6′-(trifluoromethyl)-[2,3′-bipyridine]-6-carboxylate], the pest or weed control at 140 g/ha is reported as 0 to 29%.

Same assay, conditions: post-emergence, 336 h, wheat, spring (Triticum aestivum), 14 Days After Application, 140 g ai/ha, read-out: Visual Growth Reduction (%) TRZAS
In the case of `COC(=O)c1nc(-c2ccc(C(F)F)cc2Cl)ccc1Cl` [F19, methyl 3-chloro-6-(2-chloro-4-(difluoromethyl)phenyl)picolinate], the pest or weed control at 140 g/ha is reported as 0 to 29%. Molecule `COC(=O)c1nc(-c2ccc(C(F)(F)F)nc2Cl)ccc1Cl` [F8, Methyl 2′,5-dichloro-6′-(trifluoromethyl)-[2,3′-bipyridine]-6-carboxylate] has a pest or weed control at 140 g/ha of 30 to 44%.
